Assay results as given in patent US10112945B2, “Fused quinoline compunds as PI3K, mTOR inhibitors” (ADVENCHEN PHARMACEUTICALS, NANJING LTD., priority 2014, dated 2018).

Assays:
mTor = biological target: T1, mTor (Homo sapiens, UniProt P42345); test: In vitro kinase inhibition, mTor (Millipore/Merck kinases panel screening); format: biochemical; conditions: compound at 0.03 μM
T1 construct: purchased Millipore/Merck KGA
Procedure: (§1) In vitro kinase inhibition activities included Pi3k and mTor activities can be tested with Millipore/Merck KGA of Europe in their kinases panel screening. Animal antitumor activity testing can be conducted by various cancer xenograft models for a compound of formula I.
(§2) The following compounds or a pharmaceutically acceptable salt thereof, but not limited, can also be prepared similarly according to the methods described in Scheme I-Scheme II. They are also tested for the inhibitions on mTor or pi3k kinases, or tumor cell lines.

pi3K = test: In vitro kinase inhibition, pi3K (Millipore/Merck kinases panel screening); format: biochemical; conditions: compound at 0.03 μM
Procedure: as §1, §2

Compound | activity at 0.03 µM (mTor; scaffold drawing 7 series) [%] | pi3K % activity @0.03 μM (pi3K; scaffold drawing 7 series) [%] | mTor % activity @0.03 μM (mTor; scaffold drawing 7 series) [%] | activity at 0.03 µM (mTor; scaffold drawing 34 series) [%] | pi3K % activity @0.03 μM (pi3K; scaffold drawing 34 series) [%]
FC(F)(F)c1cccc(-n2c3c4cc(-c5cccnc5)ccc4ncc3n3cnnc23)c1 [3-pyridine, H, H, 16-(3-(trifluoromethyl)phenyl)-4-(pyridin-3-yl)-8,11,13,14,16-pentaazatetracyclo-[8.6.0.0^2,7.0^11,15]hexadeca-1(10),2,4,6,8,12,14-heptaene] | 0 | 70 |  |  | 
2-[(5-{16-[3-(trifluoromethyl)phenyl]-8,11,13,14,16-pentaazatetracyclo-[8.6.0.0^2,7.0^11,15]-hexadeca-1(10),2,4,6,8,12,14-heptaen-4-yl}pyridin-2-yl-amino]ethan-1-ol |  | 96 | 8 |  | 
FC(F)(F)c1cc(-n2c3c4cc(-c5cnc6ccccc6c5)ccc4ncc3n3cnnc23)ccc1Cl [3-quinoline, 4-Cl, H, 16-[4-chloro-3-(trifluoromethyl)phenyl]-4-(quinolin-3-yl)-8,11,13,14,16-pentaazatetracyclo-[8.6.0.0^2,7.0^11,15]hexadeca-1(10),2,4,6,8,12,14-heptaene] | 11 | 84 |  |  | 
O=C(CN1CCOCC1)Nc1ccc(-c2ccc3ncc4c(c3c2)n(-c2ccc(Cl)c(C(F)(F)F)c2)c2nncn42)cn1 [N-(5-{16-[4-chloro-3-(trifluoromethyl)phenyl]-8,11,13,14,16-pentaazatetracyclo[8.6.0.0^2,7.0^11,15]-hexadeca-1(10),2,4,6,8,12,14-heptaen-4-yl}pyridin-2-yl)-2-(morpholin-4-yl)acetamide] | 17 | 82 |  |  | 
NCC(=O)Nc1ccc(-c2ccc3ncc4c(c3c2)n(-c2ccc(Cl)c(C(F)(F)F)c2)c2nncn42)cn1 [2-amino-N-(5-{16-[4-chloro-3-(trifluoromethyl)phenyl]-8,11,13,14,16-pentaazatetracyclo-[8.6.0.0^2,7.0^11,15]hexadeca-1(10),2,4,6,8,12,14-heptaen-4-yl}pyridin-2-yl)acetamide] | 9 | 83 |  |  | 
FC(F)(F)c1ccc(-n2c3c4cc(-c5cnc6ccccc6c5)ccc4ncc3n3cnnc23)cc1 [3-quinoline, H, H, 4-(quinolin-3yl)-16-[4-(trifluoromethyl)phenyl]-8,11,13,14,16-pentaazatetracyclo-[8.6.0.0^2,7.0^11,15]hexadeca-1(10),2,4,6,8,12,14-heptaene] |  |  |  | 68 | 99
